Laboratory results as given in paper PMC8696980, “Isolation, semi-synthesis, docking-based prediction, and bioassay-based activity of Dolichandrone spathacea iridoids: new catalpol derivatives as glucosidase inhibitors” (RSC Advances, 2021).
Like-named read-outs stand apart in the source and are kept apart here.

Molecular target: T1, α-glucosidase (Saccharomyces cerevisiae, UniProt P53341)
T1 construct: purchased Sigma-Aldrich G0660
Test: biochemical
Assay type: biochemical
Conditions: 37 °C, 30 minutes, pH 6.8
Experimental: All analytically graded reagents were purchased from either Sigma-Aldrich or Merck & Co. and used without further purification. Solvents for column chromatography were distilled before use. Melting points (in °C) were determined on a Thermo Mel-temp 3.0 (USA). Infrared (IR) spectra were recorded on an IMPACT 410 Nicolet Spectrometer. ESI-MS spectra were obtained from an 1100 Agilent LC/MS ion Trap. 1D (^1H, ^13C and DEPT) and 2D (HSQC, HMBC, COSY, NOESY) NMR spectra were recorded on a Bruker Avance 500 MHz using tetramethylsilane (TMS) as the internal standard for ^1H and solvent signal for ^13C NMR. Thin-layer chromatography (TLC) was carried out on a pre-coated silica gel 60 F254 (Merck & Co.), visualised under ultraviolet (UV) radiation at λmax 254 nm, and stained by a solution of 1% (w/w) vanillin in sulfuric acid. Column chromatography (CC) was performed on silica gel 300–400 mesh (Merck & Co.). Enzyme α-glucosidase was purchased from Sigma-Aldrich under the name code G0660, detected by a Biotek Epoch 2 microplate readers (USA).
Each assay was performed on 96 well-plates (200 μL per well). The test samples were dissolved in DMSO 10% and further diluted to the concentrations: 1024, 256, 64, 16, 4, 1 μg.mL^−1. Each concentration of the test sample (10 μL) was incubated at 37 °C with phosphate buffer 100 mM (pH 6.8, 40 μL), α-glucosidase 0.4 U mL^−1 (25 μL), p-nitrophenyl α-D-glucopyranoside 2.5 mM (25 μL). After 30 minutes, the reaction was terminated by adding 100 μL of 0.1 M Na2CO3 solution. The enzyme activities were determined by measuring the absorbance at λmax 410 nm. […] Percentage of inhibition was calculated as followed:[31] [drawing 1]

[1] = IC50 (α-glucosidase inhibitory activity)

T1 sequence (P53341 whole entry): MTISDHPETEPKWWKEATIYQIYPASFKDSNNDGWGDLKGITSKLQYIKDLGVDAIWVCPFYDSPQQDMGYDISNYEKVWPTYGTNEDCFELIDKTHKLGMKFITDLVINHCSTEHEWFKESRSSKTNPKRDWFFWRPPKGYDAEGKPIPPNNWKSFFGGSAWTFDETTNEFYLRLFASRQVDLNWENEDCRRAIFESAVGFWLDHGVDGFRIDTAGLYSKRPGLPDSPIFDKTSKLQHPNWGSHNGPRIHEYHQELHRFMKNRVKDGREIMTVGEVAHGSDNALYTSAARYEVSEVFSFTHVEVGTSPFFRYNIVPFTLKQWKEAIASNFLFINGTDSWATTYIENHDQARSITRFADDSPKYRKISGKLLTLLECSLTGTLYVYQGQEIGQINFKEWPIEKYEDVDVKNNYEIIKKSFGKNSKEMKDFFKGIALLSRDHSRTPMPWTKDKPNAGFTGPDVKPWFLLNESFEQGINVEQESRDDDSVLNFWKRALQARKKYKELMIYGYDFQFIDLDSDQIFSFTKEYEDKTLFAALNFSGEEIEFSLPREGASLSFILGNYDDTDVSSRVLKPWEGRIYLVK

Compound	IC50 [1]	IC50 (α-glucosidase inhibitory activity)	IC50 (read-out: IC50 (α-glucosidase inhibitory activity))
COc1ccc(C=CC(=O)OC2C3C=COC(OC4OC(CO)C(O)C(O)C4O)C3C3(CO)OC23)cc1 (stereo not shown) [Compound 1, 6-O-[(E)-4-methoxycinnamoyl]catalpol]	24.9 µM	–	–
COc1ccc(CCC(=O)OC2C3C=COC(OC4OC(CO)C(O)C(O)C4O)C3C3(CO)OC23)cc1OC (stereo not shown) [Compound 4, 6-O-(3,4-dimethoxyphenylpropanoyl)catalpol]	> 390 µM	inactive	–
CC(=CCO)CCC=C(C)C(=O)OC1C2C=COC(OC3OC(CO)C(O)C(O)C3O)C2C2(CO)OC12 (stereo not shown) [Compound 10, nemoroside]	0.05 µM	–	–
COc1ccc(CCC(=O)OC2C3C=COC(OC4OC(COC(C)=O)C(OC(C)=O)C(OC(C)=O)C4OC(C)=O)C3C3(COC(C)=O)OC23)cc1OC (stereo not shown) [Compound 5, 6-O-(3,4-dimethoxyphenylpropanoyl)catalpolpentaacetate]	> 390 µM	inactive	–
COc1ccc(C=CC(=O)OC2C3C=COC(OC4OC(COC(C)=O)C(OC(C)=O)C(OC(C)=O)C4OC(C)=O)C3C3(COC(C)=O)OC23)cc1OC(C)=O (stereo not shown) [Compound 11, 6-O-[(E)-4-methoxycinnamoyl]catalpolhexaacetate]	> 390 µM	inactive	–
COc1ccc(C=CC(=O)OC2C3C=COC(OC4OC(COC(C)=O)C(OC(C)=O)C(OC(C)=O)C4OC(C)=O)C3C3(COC(C)=O)OC23)cc1OC (stereo not shown) [Compound 8, 6-O-[(E)-3,4-dimethoxycinnamoyl]catalpolpentaacetate]	> 390 µM	inactive	–
COc1ccc(C=CC(=O)OC2C3C=COC(OC4OC5COC(C)(C)OC5C(O)C4O)C3C3(CO)OC23)cc1 (stereo not shown) [Compound 9, 6-O-[(E)-4-methoxycinnamoyl]catalpol-4′,6′-acetonide]	> 390 µM	–	–
CC(=O)OCC1OC(OC2OC=CC3C(OC(=O)C=Cc4ccc(OC(C)=O)cc4)C4OC4(COC(C)=O)C23)C(OC(C)=O)C(OC(C)=O)C1OC(C)=O (stereo not shown) [Compound 12, specioside hexaacetate]	71.6 µM	–	–
O=C(/C=C/c1ccc(O)cc1)O[C@H]1[C@@H]2C=CO[C@@H](O[C@@H]3O[C@H](CO)[C@@H](O)[C@H](O)[C@H]3O)[C@@H]2[C@@]2(CO)O[C@@H]12 [Compound 14, specioside]	–	–	8.65 µM
COc1ccc(C=CC(=O)OC2C3C=COC(OC4OC(COC(C)=O)C(OC(C)=O)C(OC(C)=O)C4OC(C)=O)C3C3(COC(C)=O)OC23)cc1 (stereo not shown) [Compound 7, minecoside pentaacetate]	168 µM	–	–
COc1ccc(C=CC(=O)OC2C3C=COC(OC4OC(CO)C(O)C(O)C4O)C3C3(CO)OC23)cc1OC (stereo not shown) [Compound 2, 6-O-[(E)-3,4-dimethoxycinnamoyl]catalpol]	7.24 µM	–	–
COc1ccc(CCC(=O)OC2C3C=COC(OC4OC(CO)C(O)C(O)C4O)C3C3(CO)OC23)cc1 (stereo not shown) [Compound 3, 6-O-(4-methoxyphenylpropanoyl)catalpol]	> 390 µM	inactive	–
COc1ccc(C=CC(=O)OC2C3C=COC(OC4OC(COC(c5ccccc5)(c5ccccc5)c5ccccc5)C(O)C(O)C4O)C3C3(COC(c4ccccc4)(c4ccccc4)c4ccccc4)OC23)cc1OC (stereo not shown) [Compound 6, 6-O-[(E)-3,4-dimethoxy]catalpol-10,6′-O-ditriphenylmethyl]	225 µM	–	–
COc1ccc(/C=C/C(=O)O[C@H]2[C@@H]3C=CO[C@@H](O[C@@H]4O[C@H](CO)[C@@H](O)[C@H](O)[C@H]4O)[C@@H]3[C@@]3(CO)O[C@@H]23)cc1O [Compound 13, minecoside]	20.8 µM	–	–
